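Five compound concentrations were applied to cells in 96-well plates for 48 hours; endpoints were derived by simple linear interpolation of the resulting dose-response curve. Here, GI50 denotes the concentration required for 50% inhibition of growth.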 The source made the active and inactive calls. Rule as the data show it: active = GI50 up to about 1.1 µM and inactive = higher.
What was measured:
Assay in all cases: inhibition of tumour cell growth, NCI panel, 48 h
[1] = tested on: 786-0
[2] = tested on: MCF7
[3] = tested on: HOP-62
[4] = tested on: NCI-H460
[5] = tested on: EKVX
[6] = tested on: UACC-62
[7] = tested on: HCT-15
[8] = tested on: TK-10
[9] = tested on: HCC 2998
[10] = tested on: NCI-H226
[11] = tested on: SNB-75
[12] = tested on: M14
[13] = tested on: MDA-N
[14] = tested on: CCRF-CEM
[15] = tested on: OVCAR-4
[16] = tested on: DU-145
[17] = tested on: OVCAR-8
[18] = tested on: IGROV-1
[19] = tested on: MOLT-4

SMILES	GI50 [1]	GI50 [2]	GI50 [3]	GI50 [4]	GI50 [5]	GI50 [6]	GI50 [7] [µM]	GI50 [8]	GI50 [9]	GI50 [10]	GI50 [11]	GI50 [12]	GI50 [13]	GI50 [14]	GI50 [15]	GI50 [16]	GI50 [17]	GI50 [18]	GI50 [19]
C=CCOC(=O)CCCCCCCCCCCCCCCOC(=O)C1=C(CCC[C@@H](C)O[Si](C)(C)C(C)(C)C)NC(=O)N2[C@H](CC3(CC/C=C\[C@H](CC)O[Si](C(C)C)(C(C)C)C(C)C)OCCO3)CC[C@H]12	> 100 µM (inactive)	> 100 µM (inactive)	> 100 µM (inactive)	> 100 µM (inactive)	> 100 µM (inactive)	> 100 µM (inactive)	> 100	> 100 µM (inactive)	> 100 µM (inactive)	> 100 µM (inactive)	> 100 µM (inactive)	> 100 µM (inactive)	> 100 µM (inactive)	> 100 µM (inactive)	> 100 µM (inactive)	> 100 µM (inactive)	–	–	–
N#CC12CC(C=O)=C(N)C1(C#N)CC(C=O)=C2N (stereo not drawn)	> 100 µM (inactive)	58.9 µM (inactive)	65.9 µM (inactive)	–	> 100 µM (inactive)	36.2 µM (inactive)	8.34	> 100 µM (inactive)	26.5 µM (inactive)	> 100 µM (inactive)	44.4 µM (inactive)	35.9 µM (inactive)	32.4 µM (inactive)	36.7 µM (inactive)	–	46 µM (inactive)	63.7 µM (inactive)	71.9 µM (inactive)	50.8 µM (inactive)
Cc1cc(-c2nc3ccccc3s2)ccc1NC(=O)[C@H](C)N	11.1 µM (inactive)	0.372 µM (active)	13.8 µM (inactive)	10.1 µM (inactive)	–	14.8 µM (inactive)	14.1	–	10.6 µM (inactive)	0.942 µM (active)	12.5 µM (inactive)	3.14 µM (inactive)	10.4 µM (inactive)	7.89 µM (inactive)	12.2 µM (inactive)	15.3 µM (inactive)	17.9 µM (inactive)	4.38 µM (inactive)	18.2 µM (inactive)
C=C1NC(=O)C(CC(C(=O)C(=O)Nc2c(C)cccc2C(C)(C)C)C(=O)c2ccc3ccccc3c2)C(=O)N1 (stereo not drawn)	> 100 µM (inactive)	> 100 µM (inactive)	–	> 100 µM (inactive)	–	> 100 µM (inactive)	> 100	–	> 100 µM (inactive)	> 100 µM (inactive)	> 100 µM (inactive)	> 100 µM (inactive)	> 100 µM (inactive)	> 100 µM (inactive)	> 100 µM (inactive)	> 100 µM (inactive)	> 100 µM (inactive)	–	> 100 µM (inactive)
Cc1nnc2n1N=C(c1cc(F)c(Cl)cc1Cl)/C(=C/c1ccc(Cl)cc1)S2	16.8 µM (inactive)	14.4 µM (inactive)	15.7 µM (inactive)	13.9 µM (inactive)	9.42 µM (inactive)	15 µM (inactive)	13.8	28.7 µM (inactive)	13.4 µM (inactive)	23.2 µM (inactive)	–	17.9 µM (inactive)	15.8 µM (inactive)	19.1 µM (inactive)	13.7 µM (inactive)	17.1 µM (inactive)	16.1 µM (inactive)	19.6 µM (inactive)	9.91 µM (inactive)
Cc1occc1C(=S)Nc1ccc(Cl)c(C(=O)OC(C(C)C)C(C)C)c1	13.7 µM (inactive)	13.1 µM (inactive)	17.2 µM (inactive)	13.6 µM (inactive)	8 µM (inactive)	10.8 µM (inactive)	13.1	15.3 µM (inactive)	9.23 µM (inactive)	15.2 µM (inactive)	–	12.7 µM (inactive)	12.1 µM (inactive)	7.16 µM (inactive)	14.7 µM (inactive)	13.7 µM (inactive)	13.3 µM (inactive)	15.2 µM (inactive)	5.32 µM (inactive)
CC1(C)OC[C@@H](O)[C@H](C#N)CO1	> 100 µM (inactive)	> 100 µM (inactive)	> 100 µM (inactive)	> 100 µM (inactive)	> 100 µM (inactive)	> 100 µM (inactive)	> 100	> 100 µM (inactive)	> 100 µM (inactive)	> 100 µM (inactive)	> 100 µM (inactive)	> 100 µM (inactive)	> 100 µM (inactive)	> 100 µM (inactive)	> 100 µM (inactive)	> 100 µM (inactive)	> 100 µM (inactive)	–	> 100 µM (inactive)
C=C1C(=O)C2(C)OC2(C)C1C(=O)O (stereo not drawn)	> 100 µM (inactive)	> 100 µM (inactive)	> 100 µM (inactive)	> 100 µM (inactive)	> 100 µM (inactive)	> 100 µM (inactive)	> 100	> 100 µM (inactive)	> 100 µM (inactive)	> 100 µM (inactive)	> 100 µM (inactive)	> 100 µM (inactive)	> 100 µM (inactive)	> 100 µM (inactive)	> 100 µM (inactive)	> 100 µM (inactive)	> 100 µM (inactive)	> 100 µM (inactive)	–
Nc1nc(NNc2ccc(Cl)c(Cl)c2)cc(=O)[nH]1	21.6 µM (inactive)	17.3 µM (inactive)	70.8 µM (inactive)	41.6 µM (inactive)	39.2 µM (inactive)	–	19.7	> 100 µM (inactive)	19.8 µM (inactive)	78.9 µM (inactive)	–	34.2 µM (inactive)	35.5 µM (inactive)	36.4 µM (inactive)	52 µM (inactive)	35.8 µM (inactive)	44.9 µM (inactive)	28.4 µM (inactive)	19.4 µM (inactive)
CC(=O)NNC(=S)N/C=C1/C(=O)Oc2ccccc2C1=O	> 100 µM (inactive)	> 100 µM (inactive)	> 100 µM (inactive)	> 100 µM (inactive)	–	51.6 µM (inactive)	> 100	> 100 µM (inactive)	> 100 µM (inactive)	> 100 µM (inactive)	> 100 µM (inactive)	> 100 µM (inactive)	> 100 µM (inactive)	> 100 µM (inactive)	> 100 µM (inactive)	> 100 µM (inactive)	> 100 µM (inactive)	> 100 µM (inactive)	> 100 µM (inactive)
C=CCn1c(-c2ccc([N+](=O)[O-])cc2)cs/c1=N\C(P(=O)(O)O)P(=O)(O)O	> 100 µM (inactive)	> 100 µM (inactive)	> 100 µM (inactive)	> 100 µM (inactive)	> 100 µM (inactive)	> 100 µM (inactive)	> 100	> 100 µM (inactive)	> 100 µM (inactive)	> 100 µM (inactive)	> 100 µM (inactive)	> 100 µM (inactive)	> 100 µM (inactive)	> 100 µM (inactive)	–	> 100 µM (inactive)	> 100 µM (inactive)	> 100 µM (inactive)	> 100 µM (inactive)
FC(F)(Sc1ncccn1)c1nc2ccccc2o1	> 100 µM (inactive)	> 100 µM (inactive)	> 100 µM (inactive)	> 100 µM (inactive)	–	> 100 µM (inactive)	> 100	> 100 µM (inactive)	> 100 µM (inactive)	> 100 µM (inactive)	22 µM (inactive)	> 100 µM (inactive)	> 100 µM (inactive)	33.5 µM (inactive)	> 100 µM (inactive)	> 100 µM (inactive)	> 100 µM (inactive)	> 100 µM (inactive)	57.3 µM (inactive)
CC(O)(c1ccccc1)c1nccc2ccccc12 (stereo not drawn)	> 100 µM (inactive)	80.9 µM (inactive)	> 100 µM (inactive)	96.4 µM (inactive)	–	50.6 µM (inactive)	53	> 100 µM (inactive)	> 100 µM (inactive)	31.5 µM (inactive)	53.7 µM (inactive)	74.5 µM (inactive)	23.4 µM (inactive)	58.6 µM (inactive)	37.7 µM (inactive)	> 100 µM (inactive)	> 100 µM (inactive)	37.8 µM (inactive)	41.9 µM (inactive)
O=c1[nH]c(=O)n(COCc2ccccc2)cc1Nc1ccc(Br)cc1	> 100 µM (inactive)	> 100 µM (inactive)	17.1 µM (inactive)	> 100 µM (inactive)	> 100 µM (inactive)	> 100 µM (inactive)	> 100	–	> 100 µM (inactive)	> 100 µM (inactive)	–	> 100 µM (inactive)	> 100 µM (inactive)	> 100 µM (inactive)	> 100 µM (inactive)	> 100 µM (inactive)	–	0.51 µM (active)	> 100 µM (inactive)
CC12CCC(C(=O)OC1=O)C2(C)C (stereo not drawn)	> 100 µM (inactive)	> 100 µM (inactive)	> 100 µM (inactive)	> 100 µM (inactive)	–	> 100 µM (inactive)	> 100	> 100 µM (inactive)	> 100 µM (inactive)	> 100 µM (inactive)	82.4 µM (inactive)	> 100 µM (inactive)	> 100 µM (inactive)	> 100 µM (inactive)	> 100 µM (inactive)	> 100 µM (inactive)	> 100 µM (inactive)	> 100 µM (inactive)	> 100 µM (inactive)
Cc1ccc(NC(=O)CC(=O)n2nc(C)c(/N=N/c3ccc(S(=O)(=O)CCOS(=O)(=O)O)cc3)c2C)cc1	> 100 µM (inactive)	> 100 µM (inactive)	> 100 µM (inactive)	> 100 µM (inactive)	> 100 µM (inactive)	> 100 µM (inactive)	> 10	> 100 µM (inactive)	> 100 µM (inactive)	> 100 µM (inactive)	> 100 µM (inactive)	> 100 µM (inactive)	> 100 µM (inactive)	> 100 µM (inactive)	–	> 100 µM (inactive)	> 100 µM (inactive)	> 100 µM (inactive)	> 100 µM (inactive)

Reference: ChEMBL document CHEMBL1201862, “PubChem BioAssay data set” (2004)
